Counter-ions that a name gives are not always drawn.
Key:
S-3769 strain = test: Combinational effect with antibacterial agent against Pseudomonas aeruginosa (Test Examples 2 and 4): S-3769 strain with AMK or GM at 1/4 MIC, EC99; assay type: cell-based; conditions: S-3769 strain, Test Example 4; for EC99, combinational effect with AMK, S-3769 strain: combined with AMK at 1/4 MIC; for EC99, combinational effect with GM, S-3769 strain: combined with GM at 1/4 MIC
How it was run: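 EC99, the lowest test-compound concentration inhibiting growth by ≥99% (OD595), was measured with aminoglycoside AMK or GM held at ¼ MIC. Strain S-3769, a MexY-overexpressing clinical isolate, was cultured in CAMHB at 10^4 to 5 CFU/well for 16–20 h; compound range 0–800 μM.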

mexB (PA) strain = test: Combinational effect with antibacterial agent against Pseudomonas aeruginosa (Test Examples 2 and 4): mexB (PA) strain with LVFX, TC or AZT at 1/4 MIC, EC99; assay type: cell-based; conditions: mexB (PA) strain, Test Example 4; for EC99, combinational effect with AZT, mexB (PA): combined with AZT at 1/4 MIC; for EC99, combinational effect with LVFX, mexB (PA): combined with LVFX at 1/4 MIC; for EC99, combinational effect with TC, mexB (PA): combined with TC at 1/4 MIC
How it was run: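 EC99 denotes the minimum test-compound concentration (range 0–800 μM) that suppresses ≥99% of growth, measured by OD595, when combined with ¼ MIC levofloxacin (LVFX), tetracycline or aztreonam. The efflux-pump mutant mexB (PA), expressing mainly MexAB-OprM, was inoculated at 10^4–5 CFU/well in CAMHB for 16–20 h.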

mexB (EC) strain = test: Efflux ability inhibition effect on drug efflux pump MexB (Test Examples 1 and 3): proliferation (OD595) of mexB (EC) strain with EM or LVFX at 1/4 MIC, EC75; assay type: cell-based, Escherichia coli; conditions: Table 53, Test Example 3, same manner as Test Example 1; for EC75, mexB (EC) strain, LVFX: combined with LVFX at 1/4 MIC; for EC75, mexB (EC) strain, EM: combined with EM at 1/4 MIC
Method: The efflux ability inhibition effect of the test compound on the drug efflux pump was evaluated using the bacterial proliferative ability in the presence of EM or LVFX as an index.
EM is a macrolide antibacterial agent and is a drug that is discharged outside the bacteria by MexB and MexY LVFX is a quinolone antibacterial agent and is a drug that is discharged outside the bacteria by MexB and MexY In a case where the test compound has an efflux ability inhibitory ability against the drug efflux pump, the proliferation of bacteria is suppressed by the combined use of EM or LVFX and the test compound, as compared with the case where EM or LVFX is used alone.
A mutant strain (hereinafter, referred to as an “mexB (EC) strain”) obtained by transferring the genes of the main multidrug efflux system MexAB-OprM of Pseudomonas aeruginosa described in Nature, 2013, Vol. 500, pp. 102 to 106 as a plasmid into Escherichia coli strains in which the acrB and tolC genes of the multidrug efflux system AcrAB-TolC were deleted as described in Journal of Infection and Chemotherapy 2008, Vol. 14, pp. 23 to 29, and a gene transfer strain (hereinafter, referred to as an “mexY (EC) strain”) of another main multidrug efflux system MexXY-OprM of Pseudomonas aeruginosa were used for the evaluation of test compounds.
In the mexB (EC) strain, an expression level of MexB of the drug efflux pump is accelerated, and in the mexY (EC) strain, an expression level of MexY of the drug efflux pump is accelerated.
For culturing each Escherichia coli strain, a 96-well plate (amount of culture medium per well: 100 μL) was used and Luria-Bertani broth (LB) culture medium was used. The inoculation amount of the bacteria was set to 10^4 to 5 CFU/well.
The mexB (EC) strain and the mexY (EC) strain were cultured for 16 to 20 hours in a culture medium to which EM or LVFX and test compounds at various concentrations (0 to 800 μM) were added, and the proliferation of the bacterial strains was evaluated by optical turbidity at 595 nm (OD595). The concentration of the antibacterial agents (EM and LVFX) in the culture medium were each set to ¼ of the minimum inhibitory concentration (MIC) (hereinafter, referred to as ¼ MIC) of the single antibacterial agent.
The proliferation of bacteria in a case where the antibacterial agent was added at the concentration of ¼ MIC in a case where the test compound was not added was measured, and compared with the proliferation of bacteria in a case where the test compound was contained, and the lowest concentration of the test compound at which the proliferation was inhibited by 75% or more was defined as the drug efflux pump inhibitory ability of the test compound as 75% inhibitory effect concentration (EC75).
The drug efflux pump inhibitory ability of each test compound in a case of being used in combination with the antibacterial agent against the mexB (EC) strain and the mexY (EC) strain was evaluated as follows according to the value of EC75. • S: EC75≤[…] • A: 12.5 μM<EC75≤25 μM • B: 25 μM<EC75≤100 μM • C: […]
In the same manner as in Test Example 1, the efflux ability inhibition effect of the test compound on the drug efflux pump was evaluated using the bacterial proliferation ability in the presence of EM or LVFX as an index.

Row | Compound | EC99, combinational effect with AMK, S-3769 strain (S-3769 strain) | EC99, combinational effect with GM, S-3769 strain (S-3769 strain) | EC99, combinational effect with AZT, mexB (PA) (mexB (PA) strain) | EC99, combinational effect with LVFX, mexB (PA) (mexB (PA) strain) | EC99, combinational effect with TC, mexB (PA) (mexB (PA) strain) | EC75, mexB (EC) strain, LVFX (mexB (EC) strain) | EC75, mexB (EC) strain, EM (mexB (EC) strain)
1 | C=C(Br)c1ccc(Cl)cc1CCN1CCC([C@@H](N)C(=O)N2CCN(Cc3c(F)cccc3OCC)CC2)CC1 [Example 545, Hydrobromide of (R)-2-amino-2-(1-(2-(1-bromovinyl)-5-chlorophenethyl)piperidin-4-yl)-1-(4-(2-ethoxy-6-fluorobenzyl)piperazin-1-yl)ethan-1-one] | S (EC99≤12.5 μM) | S (EC99≤12.5 μM) | B (25 μM<EC99≤100 μM) | B (25 μM<EC99≤100 μM) | B (25 μM<EC99≤100 μM) | A (12.5 μM<EC75≤25 μM) | –
2 | CCOc1cccc(F)c1CN1CCN(C(=O)[C@H](N)C2CCN(CCc3cc(Cl)ccc3C#Cc3ccccc3)CC2)CC1 [Example 546, Hydrobromide of (R)-2-amino-2-(1-(5-chloro-2-(phenylethynyl)phenethyl)piperidin-4-yl)-1-(4-(2-ethoxy-6-fluorobenzyl)piperazin-1-yl)ethan-1-one] | S (EC99≤12.5 μM) | S (EC99≤12.5 μM) | C (100 μM<EC99) | C (100 μM<EC99) | A (12.5 μM<EC99≤25 μM) | A (12.5 μM<EC75≤25 μM) | A (12.5 μM<EC75≤25 μM)
3 | CCOc1cccc(F)c1CN1CCN(C(=O)[C@H](N)C2CCN(CCc3cc(-c4ccccc4)ccc3Cl)CC2)CC1 [Example 566, Hydrobromide of (R)-2-amino-2-(1-(2-(4-chloro-[1,1-biphenyl]-3-yl)ethyl)piperidin-4-yl)-1-(4-(2-ethoxy-6-fluorobenzyl)piperazin-1-yl)ethan-1-one] | S (EC99≤12.5 μM) | S (EC99≤12.5 μM) | B (25 μM<EC99≤100 μM) | B (25 μM<EC99≤100 μM) | B (25 μM<EC99≤100 μM) | – | A (12.5 μM<EC75≤25 μM)
4 | Cl.N[C@@H](C(=O)N1CCN(Cc2c(O)cccc2Cl)CC1)C1CCN(CCc2cc(Cl)ccc2-c2ccccc2)CC1 [Example 574, Hydrochloride of (R)-2-amino-1-(4-(2-chloro-6-hydroxybenzyl)piperazin-1-yl)-2-(1-(2-(4-chloro-[1,1-biphenyl]-2-yl)ethyl)piperidin-4-yl) ethan-1-one] | A (12.5 μM<EC99≤25 μM) | B (25 μM<EC99≤100 μM) | A (12.5 μM<EC99≤25 μM) | A (12.5 μM<EC99≤25 μM) | A (12.5 μM<EC99≤25 μM) | S (EC75≤12.5 M) | –
5 | CSc1ccccc1CN1CCN(C(=O)[C@H](N)C2CCN(CCc3cc(Cl)ccc3-c3cccc(O)c3Cl)CC2)CC1.Cl [Example 613, Hydrochloride of (R)-2-amino-2-(1-(2-(2′,4-dichloro-3′-hydroxy-[1,1-biphenyl]-2-yl)ethyl)piperidin-4-yl)-1-(4-(2-(methylthio)benzyl)piperazin-1-yl) ethan-1-one] | S (EC99≤12.5 μM) | A (12.5 μM<EC99≤25 μM) | S (EC99≤12.5 μM) | S (EC99≤12.5 μM) | S (EC99≤12.5 μM) | S (EC75≤12.5 M) | –
